Data reported in the supplement of paper PMC10627819.

Columns and labels:
B. subtilis 168 [1] = assay: fitness (endpoint OD595 vs no drug) (fraction); higher = more growth
How it was run: (§1)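 Fitness compares growth at the stationary-phase transition with the robust mean of no-drug control wells, as a ratio of optical densities. The ratio is capped at 1. Wells of 384-well plates held 30 µl, or 55 µl for S. pneumoniae, inoculated at OD595 0.01. Readings at OD595 every 30 min for 14 h at 37 °C were corrected against the first reading.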

S. pneumoniae D39V [2] = assay: as above
How it was run: as §1

S. aureus Newman = assay: Bliss interaction score (quartile over a dose matrix) (fitness difference); higher = more antagonism (negative = synergy)
How it was run: (§2)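 Fitness was derived from optical density at entry into stationary phase, divided by the robust mean of the no-drug wells on the same plate. That reading was taken as OD595, and the ratio was capped at 1. Single-drug fitness was inferred from the combination data. The Bliss score, observed fitness minus the expected product of single-drug fitness, was summarised as quartiles over technical, biological and donor/recipient replicates.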

B. subtilis 168 [3] = assay: as above
How it was run: as §2

S. pneumoniae D39V [4] = assay: as above
How it was run: as §2

S. aureus DSM 20231 = assay: as above
How it was run: as §2
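Wherever Bliss interaction score (quartile over a dose matrix) is given: first quartile when negative (synergy) and third quartile when positive (antagonism).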

COc1cccc2c1C(=O)c1c(O)c3c(c(O)c1C2=O)C[C@@](O)(C(=O)CO)C[C@@H]3O[C@H]1C[C@H](N)[C@H](O)[C@H](C)O1 [Doxorubicin] + CN(C)C(=O)C(CCN1CCC(O)(c2ccc(Cl)cc2)CC1)(c1ccccc1)c1ccccc1 [Loperamide]
Details | fitness
B. subtilis 168 [1], first compound 0.625 µg/mL, partner 50 µg/mL | 0.0285
B. subtilis 168 [1], first compound 0.625 µg/mL, partner 100 µg/mL | 0.0284
B. subtilis 168 [1], first compound 1.25 µg/mL, partner 50 µg/mL | 0.0281
B. subtilis 168 [1], first compound 1.25 µg/mL, partner 100 µg/mL | 0.0427
B. subtilis 168 [1], first compound 2.5 µg/mL, partner 25 µg/mL | 0.0131
B. subtilis 168 [1], first compound 2.5 µg/mL, partner 50 µg/mL | 0.0232
B. subtilis 168 [1], first compound 2.5 µg/mL, partner 100 µg/mL | 0.019
S. pneumoniae D39V [2], first compound 0.25 µg/mL, partner 17.14 µg/mL | 0.905
S. pneumoniae D39V [2], first compound 0.25 µg/mL, partner 20 µg/mL | ≥ 1
S. pneumoniae D39V [2], first compound 0.25 µg/mL, partner 34.28 µg/mL | 0.884
S. pneumoniae D39V [2], first compound 0.25 µg/mL, partner 40 µg/mL | ≥ 1
S. pneumoniae D39V [2], first compound 0.5 µg/mL, partner 17.14 µg/mL | 0.915
S. pneumoniae D39V [2], first compound 0.5 µg/mL, partner 20 µg/mL | ≥ 1
S. pneumoniae D39V [2], first compound 0.5 µg/mL, partner 34.28 µg/mL | 0.899
S. pneumoniae D39V [2], first compound 0.5 µg/mL, partner 40 µg/mL | ≥ 1
S. pneumoniae D39V [2], first compound 1 µg/mL, partner 17.14 µg/mL | 0.912
S. pneumoniae D39V [2], first compound 1 µg/mL, partner 20 µg/mL | 0.991
S. pneumoniae D39V [2], first compound 1 µg/mL, partner 34.28 µg/mL | 0.902
S. pneumoniae D39V [2], first compound 1 µg/mL, partner 40 µg/mL | 0.967

S. pneumoniae D39V [2], partner 68.57 µg/mL, one replicate
Details | fitness
first compound 0.25 µg/mL | 0.87
first compound 0.5 µg/mL | 0.872
first compound 1 µg/mL | 0.929

Details | Bliss interaction score
B. subtilis 168 [3] | -0.228
S. aureus DSM 20231 | -0.0983
S. aureus Newman | -0.0664
S. pneumoniae D39V [4] | 0.0787

C[C@H]1c2cccc(O)c2C(=O)C2=C(O)[C@]3(O)C(=O)C(C(N)=O)=C(O)[C@@H](N(C)C)[C@@H]3[C@@H](O)[C@@H]21 [Doxycycline] + Cc1cc(NS(=O)(=O)c2ccc(N)cc2)no1 [Sulfamethoxazol]
one replicate
Details | fitness
B. subtilis 168 [1], first compound 0.02 µg/mL, partner 0.5 µg/mL | 0.829
B. subtilis 168 [1], first compound 0.04 µg/mL, partner 0.5 µg/mL | 0.72
B. subtilis 168 [1], first compound 0.08 µg/mL, partner 0.5 µg/mL | 0.456
S. pneumoniae D39V [2], first compound 0.003875 µg/mL, partner 1 µg/mL | ≥ 1
S. pneumoniae D39V [2], first compound 0.003875 µg/mL, partner 2 µg/mL | ≥ 1
S. pneumoniae D39V [2], first compound 0.003875 µg/mL, partner 4 µg/mL | ≥ 1
S. pneumoniae D39V [2], first compound 0.00775 µg/mL, partner 1 µg/mL | 0.961
S. pneumoniae D39V [2], first compound 0.00775 µg/mL, partner 2 µg/mL | 0.967
S. pneumoniae D39V [2], first compound 0.00775 µg/mL, partner 4 µg/mL | 0.963

fitness
Details | first compound 0.0155 µg/mL | first compound 0.02 µg/mL | first compound 0.031 µg/mL | first compound 0.04 µg/mL | first compound 0.062 µg/mL | first compound 0.08 µg/mL
B. subtilis 168 [1], partner 1 µg/mL | – | 0.856 | – | 0.718 | – | 0.485
B. subtilis 168 [1], partner 2 µg/mL | – | 0.818 | – | 0.702 | – | 0.424
B. subtilis 168 [1], partner 4 µg/mL | – | 0.876 | – | 0.76 | – | 0.528
S. pneumoniae D39V [2], partner 1 µg/mL | 0.929 | – | 0.848 | – | 0.755 | –
S. pneumoniae D39V [2], partner 2 µg/mL | 0.939 | – | 0.859 | – | 0.779 | –
S. pneumoniae D39V [2], partner 4 µg/mL | 0.897 | – | 0.81 | – | 0.77 | –

Details | Bliss interaction score
B. subtilis 168 [3] | -0.0451
S. aureus DSM 20231 | -0.0457
S. aureus Newman | -0.0242
S. pneumoniae D39V [4] | -0.0349

C[C@H]1c2cccc(O)c2C(=O)C2=C(O)[C@]3(O)C(=O)C(C(N)=O)=C(O)[C@@H](N(C)C)[C@@H]3[C@@H](O)[C@@H]21 [Doxycycline] + C[n+]1ccc(-c2cc[n+](C)cc2)cc1 [Paraquat]
Details | fitness
B. subtilis 168 [1], first compound 0.02 µg/mL, partner 1.25 µg/mL | 0.905
B. subtilis 168 [1], first compound 0.02 µg/mL, partner 2.5 µg/mL | 0.86
B. subtilis 168 [1], first compound 0.02 µg/mL, partner 5 µg/mL | 0.885
B. subtilis 168 [1], first compound 0.04 µg/mL, partner 1.25 µg/mL | 0.828
B. subtilis 168 [1], first compound 0.04 µg/mL, partner 2.5 µg/mL | 0.839
B. subtilis 168 [1], first compound 0.04 µg/mL, partner 5 µg/mL | 0.772
B. subtilis 168 [1], first compound 0.08 µg/mL, partner 1.25 µg/mL | 0.568
S. pneumoniae D39V [2], first compound 0.0155 µg/mL, partner 1.5 µg/mL | 0.979
S. pneumoniae D39V [2], first compound 0.0155 µg/mL, partner 3 µg/mL | 0.975
S. pneumoniae D39V [2], first compound 0.0155 µg/mL, partner 6 µg/mL | 0.978
S. pneumoniae D39V [2], first compound 0.031 µg/mL, partner 1.5 µg/mL | 0.923
S. pneumoniae D39V [2], first compound 0.031 µg/mL, partner 3 µg/mL | 0.877
S. pneumoniae D39V [2], first compound 0.031 µg/mL, partner 6 µg/mL | 0.898
S. pneumoniae D39V [2], first compound 0.062 µg/mL, partner 1.5 µg/mL | 0.845
S. pneumoniae D39V [2], first compound 0.062 µg/mL, partner 3 µg/mL | 0.841
S. pneumoniae D39V [2], first compound 0.062 µg/mL, partner 6 µg/mL | 0.806

fitness, S. pneumoniae D39V [2], one replicate
Details | partner 1.5 µg/mL | partner 3 µg/mL | partner 6 µg/mL
first compound 0.003875 µg/mL | ≥ 1 | ≥ 1 | ≥ 1
first compound 0.00775 µg/mL | ≥ 1 | 0.962 | 0.986

Details | Bliss interaction score
B. subtilis 168 [3] | 0.0932
S. aureus DSM 20231 | 0.0382
S. aureus Newman | -0.019
S. pneumoniae D39V [4] | 0.036
